# Results as given in patent US7417036B2, “Crystal form of adefovir dipivoxil and its preparation” (Tianjin Kinsly Pharmaceutical Co. Ltd., priority 2002, dated 2008).
# Where “and” joins values, the source holds several entries; their conditions need not be identical. Equal values may be shown once.
# Assay: Kinetic studies of the plasma concentration in animals with different crystalline forms of AD (oral, monkeys; adefovir measured in serum by HPLC)
# Type: in vivo, Macaques
# Method: The experiment was carried out by orally administering to monkeys the drugs in order to investigate the in vivo absorption of two crystalline forms of AD: the novel crystalline AD of the present invention produced by Tianjin Kinsly pharmaceutical R & D Co. Ltd. and crystalline form I of AD prepared according to the method of GILEAD SCIENCES INC. The experiment provides useful clinical references for the application of novel crystalline AD.
# Tablets of novel crystalline form of AD, white, each of which contains 10 mg of adefovir, Tianjin Kinsly pharmaceutical R&D Co. Ltd., batch number 020320.
# Tablets of AD crystalline form I, white, each of which contains 10 mg of adefovir, Tianjin Kinsly pharmaceutical R&D Co. Ltd., batch number 020225.
# Macaques, weighing from 5 kg to 8 kg (certificate No: 2001-03, approved by Beijing Forestry Administration in the document of [2001] 83) were provided by Xie'er Animal Health Caring Science and Technology Co. Ltd (Beijing, P. R. China).
# As the pro-drug of adefovir, AD is the bis-pivaloyloxymethyl ester of adefovir, which increases the in vivo bioavailability of orally administered adefovir. AD can be rapidly metabolized into PMEA, rendering it undetectable in blood. Thus the concentration of its parent compound was measured.
# Mobile phase: 0.2% phosphoric acid-methanol-B7 (97:3:0.5) degassed and filtrated through 0.45 μm milipore filter.
# Stationary phase: C18-column (4.6×250 mm) packed with 5μ fillers, Tianjin Tianhe Chromatogram Inc, the column temperature from 18° C. to 22° C.
# Detection: the UV detection wavelength λ=260 nm (0.01AUFS)
# A given volume of serum was taken and an equal volume of 10% trichloroacetic acid was added. The mixture was shaken thoroughly and kept still for more than 30 min to precipitate the proteins, then centrifuged at 10000 rpm for 2 min. The precipitates were separated and 30 μL of the supernat was removed for injection.
# The experiment was started one week after intestinal worms were dispelled from the animals. Eight animals were randomly assigned into two groups, each consisting of four animals. The animals were fasted for 12 h and were orally administered the novel crystalline form of AD for one group or crystalline form I of AD for another group at a dose of 20 mg/kg together with 200 ml of water. 2 hours after administration, the animals were fed in a fixed quantity. 2.0 ml samples of whole blood were collected from the elbow veins before administration and 10, 20, 30, 45 min and 1, 2, 4, 6, 8, 12, and 24 h after administration. The serum was separated and freeze-stored for measurement. A cross-experiment was done similarly 2 weeks later.
# The pharmacokinetic parameters were calculated based on the plasma concentrations at different time points. The time to peak concentration (Tpeak) and the maximum concentration (Cmax) used the measured value. The terminal phase elimination rate constant (Ke) was obtained by fitting the linear section of the curve of logarithm of the plasma concentration of drug in terminal phase versus time and the terminal phase clearance half life time (T1/2) was calculated by dividing 0.693 by Ke. AUC0-t was calculated according to the trapezoid rule.
# Apparent volume of distribution (Vd)=dosage/(AUCXKe);
# Total Clearance (CL)=dosage/AUC.
# Comparison of the data of the two crystalline form: Data of Cmax, Ke, T1/2 and AUC0-t were statistically processed by t test, while Tpeak was processed by non-parametric test. In addition, Comparison of bio-equivalence was carried out based on Cmax and AUC0-t by using two one-sided t test.
# Eight macaques were assigned into two groups, group for the novel crystalline form and the group for crystalline form I. The animals were administered according to an open randomized crossover scheme. Afterward, adefovir concentrations in serum were measured at the predetermined time points. […]
# [1] = adefovir, oral 20 mg/kg, macaques, average of 8 animals (ASD row)
# [2] = adefovir, oral 20 mg/kg, macaques, individual animal No. 1-8, listed as Crystalline form I, 20 mg/kg
smiles,measurement,setting,value
"CC(C)(C)C(=O)OCOP(=O)(COCCn1cnc2c(N)ncnc21)OCOC(=O)C(C)(C)C [crystalline form I, reference compound]","Adefovir concentrations in serum (Plasma concentrations versus time), average","0.167 h after oral administration, 20 mg/kg, macaques, average of 8 animals (ASD row)",77.0 ng/mL
same,Adefovir concentrations in serum (Plasma concentrations versus time),"0.167 h after oral administration, 20 mg/kg, macaques, individual animal No. 1-8, 20 mg/kg",66.6 ng/mL and 90.1 ng/mL
same,"Adefovir concentrations in serum (Plasma concentrations versus time), average","0.333 h after oral administration, 20 mg/kg, macaques, average of 8 animals (ASD row)",235.4 ng/mL
same,Adefovir concentrations in serum (Plasma concentrations versus time),"0.333 h after oral administration, 20 mg/kg, macaques, individual animal No. 1-8, 20 mg/kg",148.0 ng/mL
same,"Adefovir concentrations in serum (Plasma concentrations versus time), average","0.5 h after oral administration, 20 mg/kg, macaques, average of 8 animals (ASD row)",546.7 ng/mL
same,Adefovir concentrations in serum (Plasma concentrations versus time),"0.5 h after oral administration, 20 mg/kg, macaques, individual animal No. 1-8, 20 mg/kg",397.9 ng/mL
same,"Adefovir concentrations in serum (Plasma concentrations versus time), average","0.75 h after oral administration, 20 mg/kg, macaques, average of 8 animals (ASD row)",350.9 ng/mL
same,Adefovir concentrations in serum (Plasma concentrations versus time),"0.75 h after oral administration, 20 mg/kg, macaques, individual animal No. 1-8, 20 mg/kg",305.2 ng/mL
same,"Adefovir concentrations in serum (Plasma concentrations versus time), average","1 h after oral administration, 20 mg/kg, macaques, average of 8 animals (ASD row)",285.2 ng/mL
same,Adefovir concentrations in serum (Plasma concentrations versus time),"1 h after oral administration, 20 mg/kg, macaques, individual animal No. 1-8, 20 mg/kg",196.6 ng/mL
same,"Adefovir concentrations in serum (Plasma concentrations versus time), average","2 h after oral administration, 20 mg/kg, macaques, average of 8 animals (ASD row)",230.5 ng/mL
same,Adefovir concentrations in serum (Plasma concentrations versus time),"2 h after oral administration, 20 mg/kg, macaques, individual animal No. 1-8, 20 mg/kg",161.3 ng/mL
same,"Adefovir concentrations in serum (Plasma concentrations versus time), average","4 h after oral administration, 20 mg/kg, macaques, average of 8 animals (ASD row)",177.5 ng/mL
same,Adefovir concentrations in serum (Plasma concentrations versus time),"4 h after oral administration, 20 mg/kg, macaques, individual animal No. 1-8, 20 mg/kg",89.3 ng/mL
same,"Adefovir concentrations in serum (Plasma concentrations versus time), average","6 h after oral administration, 20 mg/kg, macaques, average of 8 animals (ASD row)",146.8 ng/mL
same,Adefovir concentrations in serum (Plasma concentrations versus time),"6 h after oral administration, 20 mg/kg, macaques, individual animal No. 1-8, 20 mg/kg",102.0 ng/mL
same,"Adefovir concentrations in serum (Plasma concentrations versus time), average","8 h after oral administration, 20 mg/kg, macaques, average of 8 animals (ASD row)",116.7 ng/mL
same,Adefovir concentrations in serum (Plasma concentrations versus time),"8 h after oral administration, 20 mg/kg, macaques, individual animal No. 1-8, 20 mg/kg",82.9 ng/mL
same,"Adefovir concentrations in serum (Plasma concentrations versus time), average","12 h after oral administration, 20 mg/kg, macaques, average of 8 animals (ASD row)",86.0 ng/mL
same,Adefovir concentrations in serum (Plasma concentrations versus time),"12 h after oral administration, 20 mg/kg, macaques, individual animal No. 1-8, 20 mg/kg",70.1 ng/mL and 72.6 ng/mL
same,"Adefovir concentrations in serum (Plasma concentrations versus time), average","24 h after oral administration, 20 mg/kg, macaques, average of 8 animals (ASD row)",44.3 ng/mL
same,Adefovir concentrations in serum (Plasma concentrations versus time),"24 h after oral administration, 20 mg/kg, macaques, individual animal No. 1-8, 20 mg/kg",36.8 ng/mL and 56.6 ng/mL
same,Vd,"adefovir apparent volume of distribution, oral 20 mg/kg, macaques, individual animal No. 1-8, 20 mg/kg",125.6 L and 107.3 L and 85.8 L and 95.0 L and 145.1 L and 76.6 L and 158.8 L and 99.9 L
same,average AUCO-T,"adefovir, oral 20 mg/kg",2723.82 ng·h/mL
same,average Tpeak,"adefovir, oral 20 mg/kg",0.53 h
same,average apparent volume of distribution (Vc),"adefovir, oral 20 mg/kg",17.50 L
same,average elimination half-life time,"adefovir, oral 20 mg/kg",10.5 h
same,average peak concentration,"adefovir, oral 20 mg/kg",551.21 ng/mL
same,"Cmax, average","adefovir, oral 20 mg/kg, macaques, average of 8 animals",551.21 ng/mL
same,"CL, average",[1],7723.2 mL/h
same,"Ke, average",[1],0.072 L/h
same,"T1/2, average",[1],10.5 h
same,"Tpeak, average",[1],0.53 h
same,"Vd, average",[1],117.0 L
same,"AUC0-t, average","adefovir, oral 20 mg/kg, macaques, average of 8 animals, listed as Crystalline form I, 20 mg/kg",2723.8 ng·h/mL
same,"AUC0-t, average","adefovir, oral 20 mg/kg, macaques, average of 8 animals, listed as Form I, 20 mg/kg",2724 ng·h/mL
same,AUC0-t,[2],2214.1 ng·h/mL and 2624.4 ng·h/mL and 2188.0 ng·h/mL and 3647.5 ng·h/mL and 3379.4 ng·h/mL and 3452.3 ng·h/mL and 2317.8 ng·h/mL and 1967.0 ng·h/mL
same,Cmax,[2],402.2 ng/mL and 785.4 ng/mL and 366.2 ng/mL and 698.1 ng/mL and 915.4 ng/mL and 432.2 ng/mL and 412.3 ng/mL and 397.9 ng/mL
same,T1/2,[2],9.6 h and 9.8 h and 6.5 h and 12.0 h and 17.0 h and 9.2 h and 12.8 h and 6.8 h
same,Tpeak,[2],0.5 h (7×) and 0.75 h
same,Cmax,"adefovir, oral 20 mg/kg, macaques, individual animal No. 1-8, listed as Form I, 20 mg/kg",689.1 ng/mL
